Consider 2 compounds from ChEMBL document CHEMBL4422615, “Novel non-xanthine antagonist of the A2B adenosine receptor: From HTS hit to lead structure” (Eur J Med Chem, 2019).

The structures appear in SMILES notation. Some results are limits rather than exact numbers.

Data set [1] deals with T1, Adenosine receptor A2b (Homo sapiens, UniProt P29275).
T1 sequence (P29275 whole entry): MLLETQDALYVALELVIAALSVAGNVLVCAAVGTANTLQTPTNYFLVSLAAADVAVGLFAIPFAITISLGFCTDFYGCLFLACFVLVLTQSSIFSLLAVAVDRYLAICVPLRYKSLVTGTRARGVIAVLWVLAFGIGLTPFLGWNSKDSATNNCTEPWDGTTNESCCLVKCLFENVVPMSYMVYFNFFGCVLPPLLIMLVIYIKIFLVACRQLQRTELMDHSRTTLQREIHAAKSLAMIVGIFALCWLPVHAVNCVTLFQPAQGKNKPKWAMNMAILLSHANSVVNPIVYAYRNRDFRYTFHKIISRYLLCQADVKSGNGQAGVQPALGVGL
The data set can be described thus: Displacement of [3H]DPCPX from human A2B adenosine receptor expressed in HEK293 cell membranes after 60 mins by radioligand displacement assay.

In data set [2] the target is T1, Adenosine receptor A2b. Briefly: Antagonist activity at recombinant human A2B adenosine receptor expressed in CHO cells after 3 to 4 hrs by luciferase reporter gene assay. The format is cell-based.
Data set [3] is described as follows: Blood clearance in mouse by measuring intrinsic clearance in mouse liver microsomes by MS/MS analysis. The format is ADME.
Data set [4] can be described thus: Intrinsic clearance in rat hepatocytes by MS/MS analysis. The data set is classed as ADME, cell-based, Hepatocyte.
Data set [5] has as its target T2, Nuclear receptor subfamily 1 group I member 2 (Homo sapiens, UniProt O75469).
T2 sequence (O75469 whole entry): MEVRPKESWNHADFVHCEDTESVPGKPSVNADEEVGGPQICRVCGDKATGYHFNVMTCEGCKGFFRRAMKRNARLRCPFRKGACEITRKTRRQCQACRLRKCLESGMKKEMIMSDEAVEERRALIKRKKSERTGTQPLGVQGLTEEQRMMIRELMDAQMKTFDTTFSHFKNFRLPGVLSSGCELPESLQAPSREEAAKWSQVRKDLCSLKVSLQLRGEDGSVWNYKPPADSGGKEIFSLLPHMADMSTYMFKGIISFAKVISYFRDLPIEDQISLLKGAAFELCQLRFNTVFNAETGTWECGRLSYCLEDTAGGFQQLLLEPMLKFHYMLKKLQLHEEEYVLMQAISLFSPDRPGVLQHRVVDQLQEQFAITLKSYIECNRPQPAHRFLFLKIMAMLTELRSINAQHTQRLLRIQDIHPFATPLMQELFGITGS
Briefly: Activation of PXR in human HepG2 cells assessed as induction of CYP3A4 expression by luciferase reporter gene assay. The data set is classed as ADME, cell-based.

Data set [6] deals with Cytochrome P450 2C9 (Homo sapiens, UniProt P11712). Briefly: Inhibition of CYP2C9 in human liver microsomes using diclofenac as substrate after 15 mins in presence of NADPH by LC-MS/MS analysis. The data set is classed as ADME.
Sequence of Cytochrome P450 2C9 (P11712 whole entry): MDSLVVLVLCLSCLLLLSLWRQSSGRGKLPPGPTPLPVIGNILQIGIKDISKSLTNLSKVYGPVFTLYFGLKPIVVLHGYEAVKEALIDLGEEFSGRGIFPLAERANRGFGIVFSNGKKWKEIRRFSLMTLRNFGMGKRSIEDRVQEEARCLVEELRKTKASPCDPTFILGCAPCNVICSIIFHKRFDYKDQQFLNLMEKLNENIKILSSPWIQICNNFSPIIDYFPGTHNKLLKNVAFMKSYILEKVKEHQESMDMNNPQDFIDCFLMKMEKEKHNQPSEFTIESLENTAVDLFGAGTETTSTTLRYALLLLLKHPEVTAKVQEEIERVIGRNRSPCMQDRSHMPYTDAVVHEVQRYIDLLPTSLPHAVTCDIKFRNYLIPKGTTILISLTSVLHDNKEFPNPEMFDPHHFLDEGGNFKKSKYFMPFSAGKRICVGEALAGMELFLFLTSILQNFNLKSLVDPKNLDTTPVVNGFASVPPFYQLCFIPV
Data set [7] deals with T3, Cytochrome P450 3A4 (Homo sapiens, UniProt P08684). Briefly: Time dependent inhibition of human liver microsomes CYP3A4 using midazolam as substrate in presence of NADPH by LC-MS/MS analysis. The format is ADME.
T3 sequence (P08684 whole entry): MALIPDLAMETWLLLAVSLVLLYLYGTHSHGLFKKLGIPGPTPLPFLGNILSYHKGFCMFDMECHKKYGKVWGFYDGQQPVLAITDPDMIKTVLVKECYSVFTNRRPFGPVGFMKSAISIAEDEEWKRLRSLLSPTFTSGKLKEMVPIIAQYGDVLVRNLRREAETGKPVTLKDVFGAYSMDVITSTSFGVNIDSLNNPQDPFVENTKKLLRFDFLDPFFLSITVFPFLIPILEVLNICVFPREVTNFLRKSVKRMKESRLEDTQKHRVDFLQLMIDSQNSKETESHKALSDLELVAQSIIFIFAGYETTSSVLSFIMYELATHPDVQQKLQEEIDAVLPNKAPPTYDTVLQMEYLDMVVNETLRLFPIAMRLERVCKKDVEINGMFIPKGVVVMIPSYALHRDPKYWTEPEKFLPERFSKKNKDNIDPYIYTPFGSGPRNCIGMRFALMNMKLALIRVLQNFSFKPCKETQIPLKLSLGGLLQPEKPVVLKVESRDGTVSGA
Data set [8] in a line: Apparent permeability from apical side to basolateral side in human Caco2 cells. The format is ADME, cell-based. The following applies: Caco-2.
Data set [9] addresses Cytochrome P450 2D6 (Homo sapiens, UniProt P10635). The data set can be described thus: Inhibition of CYP2D6 in human liver microsomes using dextromethorphan as substrate after 15 mins in presence of NADPH by LC-MS/MS analysis. The data set is classed as ADME.
Data set [10] in a line: Plasma clearance in mouse. The format is ADME, organism-based.
The target in data set [11] is T4, PXR (Homo sapiens, UniProt O75469).
T4 sequence (O75469 whole entry): T2 sequence (O75469 whole entry)
Briefly: Activation of PXR in human HepG2 cells assessed as induction of CYP3A4 expression at 2 x 10^-9 to 50 x 10^-6 mol/L by luciferase reporter gene assay relative to control. The format is ADME, cell-based.

Data set [12] concerns the target T5, Cytochrome P450 1A2 (Homo sapiens, UniProt P05177).
T5 sequence (P05177 whole entry): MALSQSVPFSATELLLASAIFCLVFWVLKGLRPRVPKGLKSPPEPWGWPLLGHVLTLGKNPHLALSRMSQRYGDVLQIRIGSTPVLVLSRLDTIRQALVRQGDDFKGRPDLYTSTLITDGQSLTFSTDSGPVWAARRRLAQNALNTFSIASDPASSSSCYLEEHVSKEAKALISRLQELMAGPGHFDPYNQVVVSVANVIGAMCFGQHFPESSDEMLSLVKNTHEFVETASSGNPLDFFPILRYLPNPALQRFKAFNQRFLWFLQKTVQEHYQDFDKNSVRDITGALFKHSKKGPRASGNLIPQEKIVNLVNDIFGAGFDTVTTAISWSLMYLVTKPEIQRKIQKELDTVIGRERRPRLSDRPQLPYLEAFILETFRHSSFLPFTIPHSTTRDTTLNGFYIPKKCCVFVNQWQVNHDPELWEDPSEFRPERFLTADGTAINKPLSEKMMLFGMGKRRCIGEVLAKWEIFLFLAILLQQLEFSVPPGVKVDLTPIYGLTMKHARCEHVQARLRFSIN
The data set can be described thus: Inhibition of CYP1A2 in human liver microsomes using phenacetin as substrate after 15 mins in presence of NADPH by LC-MS/MS analysis. The format is ADME.

Data set [13] has as its target T3, Cytochrome P450 3A4. The data set can be described thus: Inhibition of CYP3A4 in human liver microsomes using midazolam as substrate preincubated for 30 mins followed by substrate addition measured after 10 mins in presence of NADPH by LC-MS/MS analysis. The data set is classed as ADME.
Data set [14] in a line: Blood clearance in rat by measuring Intrinsic clearance in rat hepatocytes by MS/MS analysis. The format is ADME, cell-based.
Data set [15] is described as follows: Efflux ratio in human Caco2 cells. The settings on record: Caco-2. The format is ADME, cell-based.
Data set [16] has as its target T6, Cytochrome P450 2C8 (Homo sapiens, UniProt P10632).
T6 sequence (P10632 whole entry): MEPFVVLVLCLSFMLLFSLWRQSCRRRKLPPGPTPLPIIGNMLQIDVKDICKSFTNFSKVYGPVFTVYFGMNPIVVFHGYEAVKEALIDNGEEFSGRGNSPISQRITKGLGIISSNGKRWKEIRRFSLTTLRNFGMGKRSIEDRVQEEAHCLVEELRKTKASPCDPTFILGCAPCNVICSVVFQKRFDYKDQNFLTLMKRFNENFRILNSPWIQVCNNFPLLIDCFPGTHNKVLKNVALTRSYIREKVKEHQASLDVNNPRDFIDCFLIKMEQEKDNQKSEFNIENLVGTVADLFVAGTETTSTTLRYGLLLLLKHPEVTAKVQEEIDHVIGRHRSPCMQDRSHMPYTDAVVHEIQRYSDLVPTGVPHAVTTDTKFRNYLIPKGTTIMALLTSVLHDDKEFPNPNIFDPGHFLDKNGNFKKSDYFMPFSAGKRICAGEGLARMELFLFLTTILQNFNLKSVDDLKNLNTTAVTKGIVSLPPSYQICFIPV
The data set can be described thus: Inhibition of CYP2C8 in human liver microsomes using amodiaquine as substrate after 15 mins in presence of NADPH by LC-MS/MS analysis. The data set is classed as ADME.

Sequence of Cytochrome P450 2D6 (P10635 whole entry): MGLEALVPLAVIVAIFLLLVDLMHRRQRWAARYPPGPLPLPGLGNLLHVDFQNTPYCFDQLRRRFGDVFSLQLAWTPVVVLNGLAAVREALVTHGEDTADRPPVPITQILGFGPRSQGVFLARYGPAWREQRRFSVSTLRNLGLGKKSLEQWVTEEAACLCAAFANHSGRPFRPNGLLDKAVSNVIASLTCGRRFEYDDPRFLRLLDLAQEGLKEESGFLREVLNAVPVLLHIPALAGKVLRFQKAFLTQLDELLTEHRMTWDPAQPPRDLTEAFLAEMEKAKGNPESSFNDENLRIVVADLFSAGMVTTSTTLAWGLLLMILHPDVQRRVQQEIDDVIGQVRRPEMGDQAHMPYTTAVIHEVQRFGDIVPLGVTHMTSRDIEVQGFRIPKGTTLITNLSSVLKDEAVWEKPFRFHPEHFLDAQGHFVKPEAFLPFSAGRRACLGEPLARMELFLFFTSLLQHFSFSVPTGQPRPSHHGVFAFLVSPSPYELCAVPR

Turning to `Cc1csc2c1c(=O)n(CCc1ccccc1)c(=O)n2CC1CCCO1` (racemic), the IC50 in [1] came to 0.52 µM. For the same compound, in [2], the EC50 was greater than 10 µM.

For `Cc1csc2c1c(=O)n(CCc1ccccc1)c(=O)n2CC1CCCO1` (stereo in doubt; 7), the values for the CLhep predicted in data set [3], in [4] and in data set [14] were 81.7 mL/min/kg, 66.7 mL/min/kg and 66.7 mL/min/kg, respectively. For the same compound, in data set [5], the MEC is listed as 2 ×10⁻⁶ mol/L. Further, the IC50 in data set [6] is 8.3 µM; in data set [1], 0.18 µM; in data set [9], greater than 20 µM; in data set [12] it was 6.5 µM; in data set [13], 16 µM; in [16] it was 10 µM. Also, the TDI result in data set [7] was “Not Active”. In addition, in [8], the Papp A→B came to 21 ×10⁻⁶ cm/s. Also, in [10], the clearance was 43.3 mL/min/kg. The Emax in [11] was 85%. For the same compound, the efflux ratio in data set [15] was determined as 0.69.
